Numbers after ± are expanded uncertainties.
Settings: 298.15 K, 101.33 kPa, Liquid; for viscosity: Capillary tube (Ostwald / Ubbelohde) method; for speed of sound: Sing-around technique in a fixed-path interferometer; for mass density: Vibrating tube method

viscosity [mPa·s]	speed of sound [m/s]	mass density [kg/m3]	SMILES
18.74 ± 0.13	1719.2 ± 1.7	1011.98 ± 0.3	NCCO [2-aminoethan-1-ol]
1.681 ± 0.013	1545.2 ± 1.7	1028.3 ± 0.31	CN1CCCC1=O [N-methylpyrrolidone]

Reference: the NIST ThermoML archive (doi:10.1021/je300742t)
